Test results taken from patent US20100068299A1 (priority 2003, published 2010).

Experiment: Reversal of formed copper phosphite precipitate by added agent (Example 1)
Assay type: physicochemical
Conditions: agent added at final concentration of 10 mM; 0.6 g/l Cu(OH)2, 14.4 g/l KH2PO3, 1 g/l K2CO3, pH 5.5

With `O=C([O-])CN(CCN(CC(=O)[O-])CC(=O)O)CC(=O)O.[Na+].[Na+]` [disodium EDTA] the “effect on formed copper phosphite precipitate” value was “immediately disappeared”.
